Structures are written as SMILES.

Series [1] deals with Spodoptera litura. Briefly: Drug uptake in Spodoptera litura assessed as surface residue level 0.2 ug/insect after 3 hr. Conditions: in vivo. The format is ADME, organism-based.
Series [2] relates to Spodoptera litura. Briefly: Drug uptake in Spodoptera litura assessed as recovered drug level 0.2 ug/insect after 8 hr. It is filed as ADME, organism-based. Conditions: in vivo.
The test system of series [3] is Spodoptera litura. Kind of series: Drug uptake in Spodoptera litura assessed as unchanged drug level 0.2 ug/insect after 3 hr. It is filed as ADME, organism-based. Conditions: in vivo.
Series [4] concerns Spodoptera litura. Kind of series: Drug uptake in Spodoptera litura assessed as penetrated drug level 0.2 ug/insect after 8 hr. The format is ADME, organism-based. Conditions: in vivo.
Series [5] concerns Spodoptera litura. Kind of series: Drug uptake in Spodoptera litura assessed as surface residue level 0.2 ug/insect after 8 hr. The format is ADME, organism-based. Conditions: in vivo.
Series [6] has as its system Spodoptera litura. Kind of series: Drug uptake in Spodoptera litura assessed as recovered drug level 0.2 ug/insect after 3 hr. The format is ADME, organism-based. Conditions: in vivo.
Series [7] concerns Spodoptera litura. Kind of series: Drug uptake in Spodoptera litura assessed as penetrated drug level 0.2 ug/insect after 3 hr. It is filed as ADME, organism-based. Conditions: in vivo.
For series [8], the system named is Spodoptera litura. Kind of series: Drug uptake in Spodoptera litura assessed as penetrated drug level 0.2 ug/insect after 2 hr. The format is ADME, organism-based. Conditions: in vivo.
Series [9] can be described thus: Octanol-water partition coefficient, log P of the compound by shake-flask method. The format is physicochemical.
The subject of series [10] is Spodoptera litura. Kind of series: Drug uptake in Spodoptera litura assessed as penetrated drug level 0.2 ug/insect after 4 hr. The format is ADME, organism-based. Conditions: in vivo.
In series [11] the test system is Spodoptera litura. Kind of series: Drug uptake in Spodoptera litura assessed as surface residue level 0.2 ug/insect after 2 hr. Conditions: in vivo. The format is ADME, organism-based.
Series [12] deals with Spodoptera litura. Kind of series: Drug uptake in Spodoptera litura assessed as recovered drug level 0.2 ug/insect after 2 hr. Conditions: in vivo. The format is ADME, organism-based.
Series [13] deals with Spodoptera litura. Kind of series: Drug uptake in Spodoptera litura assessed as surface residue level 0.2 ug/insect after 4 hr. The format is ADME, organism-based. Conditions: in vivo.
Series [14] concerns Spodoptera litura. Briefly: Drug uptake in Spodoptera litura assessed as recovered drug level 0.2 ug/insect after 4 hr. It is filed as ADME, organism-based. Conditions: in vivo.
The subject of series [15] is Spodoptera litura. Briefly: Drug uptake in Spodoptera litura assessed as unchanged drug level 0.2 ug/insect after 2 hr. Conditions: in vivo. It is filed as ADME, organism-based.
For series [16], the system named is Spodoptera litura. Briefly: Drug uptake in Spodoptera litura assessed as penetrated drug level 0.2 ug/insect after 16 hr. The format is ADME, organism-based. Conditions: in vivo.
Series [17] deals with Spodoptera litura. Kind of series: Drug uptake in Spodoptera litura assessed as recovered drug level 0.2 ug/insect after 16 hr. Conditions: in vivo. The format is ADME, organism-based.
For series [18], the system named is Spodoptera litura. Kind of series: Drug uptake in Spodoptera litura assessed as surface residue level 0.2 ug/insect after 16 hr. It is filed as ADME, organism-based. Conditions: in vivo, topical_or_ocular.
Series [19] concerns Spodoptera litura. Briefly: Drug uptake in Spodoptera litura assessed as unchanged drug level 0.2 ug/insect after 8 hr. Conditions: in vivo. The format is ADME, organism-based.
Series [20] deals with Spodoptera litura. Kind of series: Drug uptake in Spodoptera litura assessed as surface residue level 0.2 ug/insect after 6 hr. The format is ADME, organism-based. Conditions: in vivo.
Series [21] relates to Spodoptera litura. Kind of series: Drug uptake in Spodoptera litura assessed as surface residue level 0.2 ug/insect after 1 hr. It is filed as ADME, organism-based. Conditions: in vivo.
The subject of series [22] is Spodoptera litura. Briefly: Drug uptake in Spodoptera litura assessed as recovered drug level 0.2 ug/insect after 6 hr. It is filed as ADME, organism-based. Conditions: in vivo.
The test system of series [23] is Spodoptera litura. Briefly: Drug uptake in Spodoptera litura assessed as unchanged drug level 0.2 ug/insect after 1 hr. The format is ADME, organism-based. Conditions: in vivo.
For series [24], the system named is Spodoptera litura. Kind of series: Drug uptake in Spodoptera litura assessed as penetrated drug level 0.2 ug/insect after 1 hr. It is filed as ADME, organism-based. Conditions: in vivo.
In series [25] the test system is Spodoptera litura. Kind of series: Drug uptake in Spodoptera litura assessed as penetrated drug level 0.2 ug/insect after 6 hr. It is filed as ADME, organism-based. Conditions: in vivo.
In series [26] the test system is Spodoptera litura. Kind of series: Drug uptake in Spodoptera litura assessed as recovered drug level 0.2 ug/insect after 1 hr. It is filed as ADME, organism-based. Conditions: in vivo.
Series [27] concerns Spodoptera litura. Briefly: Drug uptake in Spodoptera litura assessed as penetrated drug level 0.2 ug/insect after 0.5 hr. It is filed as ADME, organism-based. Conditions: in vivo.
Series [28] relates to Spodoptera litura. Kind of series: Drug uptake in Spodoptera litura assessed as unchanged drug level 0.2 ug/insect after 0.5 hr. The format is ADME, organism-based. Conditions: in vivo.
Series [29] has as its system Spodoptera litura. Kind of series: Drug uptake in Spodoptera litura assessed as surface residue level 0.2 ug/insect after 0.5 hr. The format is ADME, organism-based. Conditions: in vivo, topical_or_ocular.
The subject of series [30] is Spodoptera litura. Kind of series: Drug uptake in Spodoptera litura assessed as recovered drug level 0.2 ug/insect after 0.5 hr. Conditions: in vivo. It is filed as ADME, organism-based.
Series [31] relates to Spodoptera litura. Kind of series: Drug uptake in Spodoptera litura assessed as surface residue level 0.2 ug/insect after 24 hr. It is filed as ADME, organism-based. Conditions: in vivo, topical_or_ocular.
For series [32], the system named is Spodoptera litura. Briefly: Drug uptake in Spodoptera litura assessed as recovered drug level 0.2 ug/insect after 24 hr. It is filed as ADME, organism-based. Conditions: in vivo.
For series [33], the system named is Spodoptera litura. Kind of series: Drug uptake in Spodoptera litura assessed as penetrated drug level 0.2 ug/insect after 24 hr. The format is ADME, organism-based. Conditions: in vivo.
Series [34] deals with Spodoptera litura. Briefly: Drug uptake in Spodoptera litura assessed as unchanged drug level 0.2 ug/insect after 4 hr. It is filed as ADME, organism-based. Conditions: in vivo.

Take `CCOP(=S)(Oc1ccc(C#N)cc1)c1ccccc1` (centres undefined) [CYANOFENPHOS]: the Drug uptake with Spodoptera litura [1] stood at 39.9%; in the series on Spodoptera litura [3], 37.4%; in the series on Spodoptera litura [4], 84.6%; in the series with Spodoptera litura [5], 11.3%; with Spodoptera litura [7], 56.5%. Besides, the Drug recovery in the series on Spodoptera litura [2] is on record as 96%; in the series on Spodoptera litura [6] it was 96.4%.

`CC1(C)C(C(=O)OC(C#N)c2cccc(Oc3ccccc3)c2)C1(C)C` (centres undefined) [FENPROPATHRIN]: the Drug uptake came to 22% in the series with Spodoptera litura [8]; 13.1% in the series on Spodoptera litura [10]; 68.8% with Spodoptera litura [11]; 69.2% with Spodoptera litura [13]; 66.5% in the series on Spodoptera litura [15]. This molecule also showed a logP in series [9] of 6. Moreover, the Drug recovery amounted to 90.8% in the series with Spodoptera litura [12] and 82.3% in the series with Spodoptera litura [14].

In the case of `CC(C)=C[C@@H]1[C@@H](C(=O)OCN2C(=O)C3=C(CCCC3)C2=O)C1(C)C` [(1R)-TRANS-TETRAMETHRIN], the Drug uptake with Spodoptera litura [16] is listed as 35.2%; in the series with Spodoptera litura [4] it was 21.2%; with Spodoptera litura [5], 63.7%; with Spodoptera litura [18], 44.9%; with Spodoptera litura [19] it was 60.3%. Besides, the results for the Drug recovery in the series with Spodoptera litura [2] and with Spodoptera litura [17] were 84.9% and 80.1%, respectively. In series [9], this molecule registered a logP of 4.73.

Turning to `COP(=S)(OC)Oc1ccc(C#N)cc1` [CYANOPHOS], the logP in series [9] was determined as 2.65. Also, the Drug uptake in the series with Spodoptera litura [20] was determined as 8.1%; in the series on Spodoptera litura [23] it was 34.3%; in the series on Spodoptera litura [24], 39.2%; in the series on Spodoptera litura [25] it was 72.8%. In the series on Spodoptera litura [21], the Surface residue is recorded as 37.4%. For the same molecule, the Drug recovery came to 80.9% with Spodoptera litura [22] and 76.6% in the series on Spodoptera litura [26].

`COP(=O)(OC)Oc1ccc([N+](=O)[O-])c(C)c1` [FENITROXON]: the Drug uptake turned out to be 25.3% in the series on Spodoptera litura [1]; 51.5% in the series with Spodoptera litura [27]; 42.7% in the series with Spodoptera litura [28]; 44.9% with Spodoptera litura [29]; 62.4% in the series with Spodoptera litura [7]. The Drug recovery with Spodoptera litura [6] came to 87.8%; in the series with Spodoptera litura [30], 96.4%.

As for `COP(=S)(OC)Oc1ccc([N+](=O)[O-])c(C)c1` [FENITROTHION], the Drug uptake with Spodoptera litura [20] is reported as 10.8%; with Spodoptera litura [23], 40.9%; in the series on Spodoptera litura [24], 51.2%; in the series on Spodoptera litura [25] it was 71%. The Surface residue in the series with Spodoptera litura [21] is 43.6%. For the same molecule, the Drug recovery was 81.8% in the series with Spodoptera litura [22] and 94.8% in the series with Spodoptera litura [26].

`CCOP(=S)(OCC)Oc1ccc([N+](=O)[O-])cc1` [PARATHION]: the Drug uptake was 10.9% in the series with Spodoptera litura [20], 56.8% with Spodoptera litura [23], 35% with Spodoptera litura [24] and 78.9% in the series on Spodoptera litura [25]. Also, in the series on Spodoptera litura [21], the Surface residue is recorded as 60.6%. The Drug recovery with Spodoptera litura [22] is 89.8%; with Spodoptera litura [26], 95.6%.

Regarding `CC(C)(C)N(NC(=O)c1ccccc1)C(=O)c1ccccc1` [RH-5849], the values for the Drug uptake in the series on Spodoptera litura [5] and in the series with Spodoptera litura [31] were 52.3% and 50.2%, respectively. The Drug recovery with Spodoptera litura [19] turned out to be 38.4%.

The molecule `COP(=O)(OC)Oc1ccc(C#N)cc1` [CYANOPHOS-OXON] came in with a logP in series [9] of 0.84. Also, the Surface residue with Spodoptera litura [21] turned out to be 31.2%. Besides, the Drug uptake in the series with Spodoptera litura [24] is recorded as 65.5%; in the series with Spodoptera litura [27] it was 55.4%; in the series with Spodoptera litura [28], 29.3%; in the series with Spodoptera litura [29], 34.5%. Also, the Drug recovery in the series with Spodoptera litura [26] is given as 96.7%; with Spodoptera litura [30], 89.9%.

Take `CC(COc1ccc(Oc2ccccc2)cc1)Oc1ccccn1` (centres undefined) [PYRIPROXYFEN]: the Drug recovery with Spodoptera litura [32] is 84%; with Spodoptera litura [14], 96.7%. In [9], this molecule displayed a logP of 5.31. In addition, the Drug uptake came to 76.4% with Spodoptera litura [33]; 40.3% in the series with Spodoptera litura [10]; 56.4% in the series on Spodoptera litura [13]; 55.3% in the series with Spodoptera litura [34]; 7.6% with Spodoptera litura [31].

As to `CCOc1ccc(NC(=O)OC(C)C)cc1OCC` [DIETHENOFENCARB], the Drug uptake with Spodoptera litura [16] was found to be 63.5%; in the series on Spodoptera litura [1], 56.6%; in the series on Spodoptera litura [3] it was 52.6%; in the series on Spodoptera litura [18], 18.1%; with Spodoptera litura [7], 31.9%. In addition, in [9], the logP is 3.02. Moreover, the Drug recovery is reported as 81.7% in the series with Spodoptera litura [17] and 88.5% with Spodoptera litura [6].

For orientation: logP means a log measure of how a compound divides between an organic and an aqueous phase. A higher logP goes with a more lipophilic compound.

Values taken from ChEMBL document CHEMBL3046197, “Relation between Penetration Rates of Pesticides and Partition Coefficients in Topical Application to Spodoptera litura” (J Pestic Sci, 2001).
